Source: PubChem BioAssay AID328 (DTP/NCI, 2004)
Several values for one entry are separate records, joined by “and”; a condition that tells them apart may be missing. Identical values can stand only once. Inconclusive results and toxic doses are left out.

Test system: BDF1 mice, P388 leukemia ip, median survival T/C
Assay: NCI In Vivo Anticancer Drug Screen. Data for tumor model P388 Leukemia (intraperitoneal) in B6D2F1 (BDF1) mice
Settings: endpoint: median survival time, higher = longer survival
In short: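 Survival ratio, drug arm over vehicle arm, in mice with a transplanted tumour.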

[1] = dose: 100.0 mg/kg/injection, schedule: Q01DX009 (ip), vehicle: saline with Tween-80
[2] = dose: 200.0 mg/kg/injection, schedule: Q01DX009 (ip), vehicle: saline with Tween-80
[3] = dose: 400.0 mg/kg/injection, schedule: Q01DX009 (ip), vehicle: saline with Tween-80
[4] = dose: 100.0 mg/kg/injection, schedule: Q04DX003 (ip), vehicle: saline with Tween-80
[5] = dose: 200.0 mg/kg/injection, schedule: Q04DX003 (ip), vehicle: saline with Tween-80
[6] = dose: 400.0 mg/kg/injection, schedule: Q04DX003 (ip), vehicle: saline with Tween-80
[7] = dose: 50.0 mg/kg/injection, schedule: Q01DX009 (ip), vehicle: saline with Tween-80

For `COC(=O)[C@@H]1c2cc3c(c(O)c2[C@@H](OC2OC(C)C(OC)C(C)(OC)C2OC)C[C@]1(C)O)C(=O)c1c(O)cc2c(c1C3=O)O[C@H]1O[C@]2(C)[C@H](O)[C@@H](N(C)C)[C@@H]1O` (some centres not stated), the T/C (dose: 0.13 mg/kg/injection, schedule: Q01DX010 (ip), vehicle: saline) was 113 % of control, the T/C (dose: 0.19 mg/kg/injection, schedule: Q01DX010 (ip), vehicle: saline) was 154 % of control and the T/C (dose: 0.25 mg/kg/injection, schedule: Q01DX009 (sc), vehicle: saline) was 100 % of control. The T/C (dose: 0.25 mg/kg/injection, schedule: Q01DX010 (ip), vehicle: saline) was 109 % of control, the T/C (dose: 0.38 mg/kg/injection, schedule: Q01DX010 (ip), vehicle: saline) was 150 % of control and the T/C (dose: 0.5 mg/kg/injection, schedule: Q01DX009 (sc), vehicle: saline) was 100 % of control. The T/C (dose: 0.75 mg/kg/injection, schedule: Q01DX001 (sc), vehicle: saline) was 100 % of control, the T/C (dose: 1.0 mg/kg/injection, schedule: Q01DX009 (ip), vehicle: saline) was 109 % of control and the T/C (dose: 1.0 mg/kg/injection, schedule: Q01DX009 (sc), vehicle: saline) was 100 % of control. For the same molecule, the T/C (dose: 1.0 mg/kg/injection, schedule: Q01DX010 (ip), vehicle: saline) was 155 % of control, the T/C (dose: 1.5 mg/kg/injection, schedule: Q01DX001 (sc), vehicle: saline) was 100 % of control and the T/C (dose: 2.0 mg/kg/injection, schedule: Q01DX009 (ip), vehicle: saline) was 100 % of control. The T/C (dose: 2.0 mg/kg/injection, schedule: Q01DX009 (oral), vehicle: saline) was 100 % of control, the T/C (dose: 2.0 mg/kg/injection, schedule: Q01DX009 (sc), vehicle: saline) was 100 % of control and the T/C (dose: 2.16 mg/kg/injection, schedule: Q04DX003 (ip), vehicle: water) was 95 % of control. For the same molecule, the T/C (dose: 3.0 mg/kg/injection, schedule: Q01DX001 (sc), vehicle: saline) was 100 % of control, the T/C (dose: 3.0 mg/kg/injection, schedule: Q04DX003 (ip), vehicle: water) was 107 % of control and the T/C (dose: 4.0 mg/kg/injection, schedule: Q01DX009 (ip), vehicle: saline) was 100 % of control. The T/C (dose: 4.0 mg/kg/injection, schedule: Q01DX009 (oral), vehicle: saline) was 100 % of control, the T/C (dose: 4.0 mg/kg/injection, schedule: Q01DX009 (sc), vehicle: saline) was 104 % of control and the T/C (dose: 5.0 mg/kg/injection, schedule: Q01DX001 (oral), vehicle: saline) was 100 % of control. The T/C (dose: 6.0 mg/kg/injection, schedule: Q01DX001 (sc), vehicle: saline) was 100 % of control, the T/C (dose: 8.0 mg/kg/injection, schedule: Q01DX009 (oral), vehicle: saline) was 100 % of control and the T/C (dose: 10.0 mg/kg/injection, schedule: Q01DX001 (oral), vehicle: saline) was 100 % of control. For the same molecule, the T/C (dose: 12.0 mg/kg/injection, schedule: Q01DX001 (sc), vehicle: saline) was 100 % of control, the T/C (dose: 16.0 mg/kg/injection, schedule: Q01DX009 (oral), vehicle: saline) was 100 % of control and the T/C (dose: 20.0 mg/kg/injection, schedule: Q01DX001 (oral), vehicle: saline) was 100 % of control. The T/C (dose: 40.0 mg/kg/injection, schedule: Q01DX001 (oral), vehicle: saline) was 100 % of control, the T/C (dose: 7.0 micrograms/kg/injection, schedule: Q01DX010 (ip), vehicle: saline) was 110 % of control and the T/C (dose: 15.0 micrograms/kg/injection, schedule: Q01DX010 (ip), vehicle: saline) was 90 % of control. For the same molecule, the T/C (dose: 30.0 micrograms/kg/injection, schedule: Q01DX010 (ip), vehicle: saline) was 110 % of control.
For `CC1(C)OC2OC(COC(=O)c3ccccc3)C(=O)C2O1` (configuration not stated), the T/C [1] was 92 % of control, the T/C [2] was 92 % of control and the T/C [3] was 101 % of control.
In the case of `CC(C)CCCCCCCCOC(=O)c1ccccc1C(=O)OCCCCCCCCC(C)C`, the T/C [4] is reported as 109 % of control, the T/C [5] is reported as 109 % of control and the T/C [6] is reported as 104 % of control.
With `COc1ccc(OC)c(NC(=O)NC(c2ccccc2)c2ccccc2)c1` the T/C (dose: 12.5 mg/kg/injection, schedule: Q01DX009 (ip), vehicle: Klucel (hydroxypropylcellulose) (HPC)) was 93 % of control.
`O=C(/C=C/c1ccccc1)c1ccccc1` was tested, and the T/C [7] was 106 % of control, the T/C [1] was 104 % of control and the T/C [2] was 108 % of control. The T/C [3] was 109 % of control.
`CCOC(=O)C1CC1Cc1ccccc1` (configuration not stated) was tested, and the T/C [1] was 108 % of control, the T/C [4] was 104 % of control and the T/C [2] was 108 % of control. For the same molecule, the T/C [5] was 108 % of control, the T/C [3] was 120 % of control and the T/C [6] was 113 % of control.
For `NC(N)=Nc1ccc(C(=O)Oc2ccc([N+](=O)[O-])cc2CN2CCCCC2)cc1`, the T/C (dose: 0.78 mg/kg/injection, schedule: Q01DX009 (ip), vehicle: water) was 101 % of control, the T/C (dose: 0.78 mg/kg/injection, schedule: Q04DX003 (ip), vehicle: water) was 100 % of control and the T/C (dose: 1.56 mg/kg/injection, schedule: Q01DX009 (ip), vehicle: water) was 93 % of control. For the same molecule, the T/C (dose: 1.56 mg/kg/injection, schedule: Q04DX003 (ip), vehicle: water) was 105 % of control, the T/C (dose: 3.12 mg/kg/injection, schedule: Q01DX009 (ip), vehicle: water) was 100 % of control and the T/C (dose: 3.12 mg/kg/injection, schedule: Q04DX003 (ip), vehicle: water) was 113 % of control. The T/C (dose: 6.25 mg/kg/injection, schedule: Q01DX009 (ip), vehicle: water) was 104 % of control, the T/C (dose: 6.25 mg/kg/injection, schedule: Q04DX003 (ip), vehicle: water) was 104 % of control and the T/C (dose: 12.5 mg/kg/injection, schedule: Q04DX003 (ip), vehicle: water) was 95 % of control.
With `Cc1cnc2ncn(Cc3c[nH]c(=O)[nH]c3=O)c(=O)c2c1` the T/C (dose: 12.5 mg/kg/injection, schedule: Q01DX001 (ip), vehicle: saline with Tween-80) was 105 % of control and 112 % of control, the T/C (dose: 25.0 mg/kg/injection, schedule: Q01DX001 (ip), vehicle: saline with Tween-80) was 104 % of control and 109 % of control and the T/C (dose: 50.0 mg/kg/injection, schedule: Q01DX001 (ip), vehicle: saline with Tween-80) was 102 % of control.
`CN(C)CCNc1cc(O)c2c(c1O)C(=O)c1ccccc1C2=O` was tested, and the T/C (dose: 50.0 mg/kg/injection, schedule: Q01DX005 (ip), vehicle: saline with Tween-80) was 113 % of control, the T/C (dose: 100.0 mg/kg/injection, schedule: Q01DX005 (ip), vehicle: saline with Tween-80) was 103 % of control and the T/C (dose: 200.0 mg/kg/injection, schedule: Q01DX005 (ip), vehicle: saline with Tween-80) was 113 % of control.
For `CCOC(OC(C)=O)OC(C)=O`, the T/C (dose: 50.0 mg/kg/injection, schedule: Q01DX001 (ip), vehicle: saline) was 100 % of control, the T/C (dose: 100.0 mg/kg/injection, schedule: Q01DX001 (ip), vehicle: saline) was 115 % of control and the T/C (dose: 200.0 mg/kg/injection, schedule: Q01DX001 (ip), vehicle: saline) was 110 % of control.
With `CCCCOC1OCN(c2ccc(OC)cc2)CC1(C)C` (configuration not stated) the T/C (dose: 50.0 mg/kg/injection, schedule: Q01DX009 (ip), vehicle: saline + alcohol) was 114 % of control, the T/C (dose: 100.0 mg/kg/injection, schedule: Q01DX009 (ip), vehicle: saline + alcohol) was 107 % of control and the T/C (dose: 200.0 mg/kg/injection, schedule: Q01DX009 (ip), vehicle: saline + alcohol) was 118 % of control.
For `Cc1c(C#N)c2n(c1C)CCCC(=O)N2`, the T/C (dose: 25.0 mg/kg/injection, schedule: Q01DX009 (ip), vehicle: saline with Tween-80) was 95 % of control, the T/C [7] was 109 % of control and the T/C (dose: 50.0 mg/kg/injection, schedule: Q04DX003 (ip), vehicle: saline with Tween-80) was 91 % of control. The T/C [1] was 104 % of control, the T/C [4] was 91 % of control and the T/C [2] was 100 % of control. The T/C [5] was 87 % of control and the T/C [6] was 91 % of control.
With `CCCNC(=O)Nc1ccc(C(=O)OCC(C)C)cc1` the T/C [4] was 104 % of control, the T/C [5] was 100 % of control and the T/C [6] was 100 % of control.
With `O=C(CC(O)(C(F)(F)F)C(F)(F)F)c1cccc(Cl)c1` the T/C (dose: 100.0 mg/kg/injection, schedule: Q01DX001 (ip), vehicle: saline with Tween-80) was 113 % of control, the T/C (dose: 200.0 mg/kg/injection, schedule: Q01DX001 (ip), vehicle: saline with Tween-80) was 113 % of control and the T/C (dose: 400.0 mg/kg/injection, schedule: Q01DX001 (ip), vehicle: saline with Tween-80) was 118 % of control.
With `Cc1cccc2cc3cccc(C)[n+]3cc12` the T/C (dose: 5.0 mg/kg/injection, schedule: Q01DX010 (ip), vehicle: saline) was 100 % of control.
With `CN1CCCCCC1` the T/C (dose: 150.0 mg/kg/injection, schedule: Q01DX009 (ip), vehicle: saline) was 95 % of control, the T/C (dose: 225.0 mg/kg/injection, schedule: Q01DX009 (ip), vehicle: saline) was 104 % of control and the T/C (dose: 335.0 mg/kg/injection, schedule: Q01DX009 (ip), vehicle: saline) was 86 % of control.
